These results are taken from patent US5218000A, “Therapeutic polyamine-amides” (priority 1988, dated 1993).

Structures are written as SMILES. Read-outs that look alike come from different tables or passages of the source.

Assay [1] relates to invertebrate L-quisqualate sub-type L-glutamate receptor and its ion channel. The experiment in a line: locust isolated retractor unguis nerve-muscle preparation, twitch amplitude on electrical stimulation. The format is cell-based, Schistocerca gregaria. Conditions: for IC50: locust retractor unguis muscle, electrically stimulated. The procedure:
The compounds were assayed for biological activity on the isolated, retractor unguis nerve-muscle preparation of the locust Schistocerca gregaria (Usherwood, P.N.R and Machili, P. (1968) J. Exp. Biol., 49: 341.). Isolated muscle preparations were bathed continuously in standard locust saline in a bath of volume 250 μl. Twitch tension recordings of the muscle were made to electrical stimulation of its motor innervation supramaximal voltage, frequency 0.1 Hz).
The locust isolated retractor unguis nerve-muscle is a preparation with well characterised muscle receptors belonging to the quisqualate-sensitiveclass (Boden, P. et al., (1986) Brain Res., 385: 205.). This preparation has previously been employed to identify antogonists of excitatory amino acid receptors, (e.g. Bateman, A. et al., (1985) Brain Res., 339: 237 and Budd, T. et al., (1988) Brain Res., 448: 30.). Excitatory amino acid receptors are also believed to be of considerable importance in the mammal and for therapeutic applications.
The potency of this monoacylated spermine as an antagonist of the complex formed by the invertebrate L-quisqualate sub-type L-glutamate receptor and its ion channel was assayed using the electrically stimulated retractor unguis muscle of the locust (Schistocerca gregaria). Twitch amplitude was reduced ([…]) from control (100%) levels at the following concentrations: […]

In the next assay the test system is quizqualate receptor. The experiment in a line: rat cerebral cortex slice (wedge, grease-gap), AMPA-induced depolarisation response. Conditions: rat brain slice. The format is cell-based, Wistar rats. An excerpt:
(§1) Coronal slices of cerebral cortex were cut with a Vibratome from the brains of freshly killed Wistar rats. Wedges of tissue were cut from either side of the mid-line to include the cortex and corpus callosum. The wedges were mounted in a grease-gap apparatus such that the cortex protruded into one compartment and the corpus callosum into the other compartment of a two-compartment bath, (Harrison N. L. & Simmonds M. A. (1985). Br. J. Pharmacol 84: 381-391.). Each compartment could be separately perfused with Krebs bicarbonate medium pre-gassed with 95% 02 /5% CO2 at room temperature. The volume of each compartment was 1.8 ml and the perfusion rate was 2 ml/min. The compartment containing the cortical part of the wedge was also gassed directly so that drugs could be injected into the bath with the perfusion pump stopped. This variant on the published method was adopted to minimise the amount of drug required. The potential difference between the two compartments was recorded continously via Ag/AgCl electrodes. […]
(§2) The potency of this monoacylated spermine was tested as an antagonist of NMDA- and AMPA- induced response in a rat brain slice model. Electrophysiologically recorded depolarisation responses were reduced from control levels (% inhibition) at the following concentrations: […]

The subject of the next assay is NMDA receptor. The experiment in a line: rat cerebral cortex slice (wedge, grease-gap), NMDA-induced depolarisation response. The format is cell-based, Wistar rats. To be noted: rat brain slice, Mg2+ omitted.
Source text: as §1, §2

[2] abbreviates: read-out: IC50 (reduction of twitch amplitude).
Setting [3] is: approximate, read-out: concentration at which an approximately 50% reduction of twitch amplitude was obtained.

Consider `NCCCNCCCCNCCCNC(=O)Cc1ccccc1O` [Example 1, N-(2-Hydroxyphenylacetyl)-spermine], for which the inhibition of twitch in assay [1] (1.5 × 10^-4 M) is listed as 85%; in assay [1] (1.5 × 10^-5 M) it was 30%; in assay [1] (3 × 10^-4 M), 90%; in assay [1] (3 × 10^-5 M), 30%; in assay [1] (3 × 10^-6 M), 20%; in assay [1] (3 × 10^-7 M), 15%. For the same compound, in assay [1] (3 × 10^-8 M), the inhibition of twitch came to 10%. In assay [1] (setting [2]), the IC50 amounted to 62 µM.
As to `NCCCNCCCCNCCCNC(=O)Cc1cccc(O)c1` [Example 2, N-(3-Hydroxyphenylacetyl)-spermine], the figures for the inhibition of twitch in assay [1] (3 × 10^-7 M) and in assay [1] (3 × 10^-8 M) were 35% and 30%, respectively.
For `NCCCNCCCCNCCCNC(=O)Cc1ccc(O)cc1` [Example 3, N-(4-Hydroxyphenylacetyl)-spermine], the inhibition of twitch in assay [1] (2.95 × 10^-5 M) was 74%; in assay [1] (4.43 × 10^-5 M), 91%; in assay [1] (5.9 × 10^-5 M) it was 96%; in assay [1] (5.9 × 10^-6 M), 25%; in assay [1] (5.9 × 10^-7 M), 9%. Further, the IC50 in assay [1] (setting [2]) worked out at 8.7 µM. Also, the “% inhibition of AMPA-induced depolarisation response” value in the assay on quizqualate receptor (10^-5 M) is 22%; with quizqualate receptor (10^-6 M), 0%. Besides, the “% inhibition of NMDA-induced depolarisation response” value was found to be 35% in the assay on NMDA receptor (10^-5 M) and 29% in the assay on NMDA receptor (10^-6 M).
As to `NCCCNCCCCNCCCNC(=O)CCc1ccccc1O` [Example 4, N-(2-Hydroxyphenylpropanoyl)-spermine], in assay [1] (setting [3]), the IC50 is around 50 µM.
For the compound `NCCCNCCCCNCCCNC(=O)CCc1cccc(O)c1` [Example 5, N-(3-Hydroxyphenylpropanoyl)-spermine], the results for the inhibition of twitch in assay [1] (1.08 × 10^-6 M) and in assay [1] (1.08 × 10^-7 M) were 15% and 10%, respectively.
On to `NCCCNCCCCNCCCNC(=O)C=Cc1ccc(O)cc1` [Example 6, N-(4-Hydroxycinnamoyl)-spermine], for which the inhibition of twitch in assay [1] (10^-5 M) is listed as 70%; in assay [1] (10^-6 M), 56%; in assay [1] (10^-7 M), 33%; in assay [1] (10^-8 M), 24%; in assay [1] (10^-9 M), 18%; in assay [1] (10^-10 M), 4%. In addition, the IC50 in assay [1] (setting [2]) came out at 60 µM.
`NCCCNCCCCNCCCNC(=O)Cc1ccc(O)cc1O` [Example 7, N-(2,4-Dihydroxyphenylacetyl)-spermine]: the IC50 in assay [1] (setting [3]) is around 50 µM.
On the same count and under the same terms, the value for `NCCCNCCCCNCCCNC(=O)Cc1ccc(O)c(O)c1` [Example 8, N-(3,4-Dihydroxyphenylacetyl)-spermine] was around 500 µM.
Consider `NCCCNCCCCNCCCNC(=O)Cc1cc(O)cc(O)c1` [Example 9, N-(3,5-Dihydroxyphenylacetyl)-spermine], for which the inhibition of twitch turned out to be 25% in assay [1] (1 07 × 10^-6 M) and 45% in assay [1] (1.07 × 10^-5 M).
As to `NCCCNCCCCNCCCNC(=O)c1ccccc1O` [Example 10], the “reduction of twitch amplitude from control level” value in assay [1] (1.09×10^-5 M, 10.9 µM) is “approximately 25%”.
For the compound `NCCCNCCCCNCCCNC(=O)c1cccc(O)c1` [Example 11, N-(3-Hydroxybenzoyl)-spermine], in assay [1] (1.02×10^-5 M, 10.2 µM), the “reduction of twitch amplitude from control levels” value (“reduction … from control levels” for short) is listed as “approximately 40%”.
In the case of `NCCCNCCCCNCCCNC(=O)c1ccc(O)cc1` [Example 12, N-(4-Hydroxybenzoyl)-spermine], in assay [1] (setting [3]), the IC50 was around 50 µM.
On to `NCCCNCCCCNCCCNC(=O)C=Cc1cccc(O)c1` [Example 13, N-(3-Hydroxycinnamoyl)-spermine], for which the “reduction … from control levels” value in assay [1] (9.2×10^-7 M, 0.92 µM) is “approximately 25%”.
In the case of `NCCCNCCCCNCCCNC(=O)Cc1ccc(O)c(F)c1` [Example 14, N-(3-Fluoro-4-hydroxyphenylacetyl)-spermine], in assay [1] (setting [3]), the IC50 is around 500 µM.
Regarding `COc1ccccc1CC(=O)NCCCNCCCCNCCCN` [Example 15, N-(2-Methoxyphenylacetyl)-spermine], in assay [1] (setting [3]), the IC50 is around 500 µM.
With `COc1ccc(CC(=O)NCCCNCCCCNCCCN)cc1` [Example 16, N-(4-Methoxyphenylacetyl)-spermine], in assay [1] (setting [3]), the IC50 was around 500 µM.
As to `COc1ccccc1CC(=O)NCCCNCCCNCCCN` [Example 17, N-(2-Methoxyphenylacetyl)-N',N"-bis(3-aminopropyl)-1,3-propanediamine], the IC50 in assay [1] (setting [3]) is around 900 µM.
Same read-out and setting: as for `COc1ccc(CC(=O)NCCCNCCCNCCCN)cc1` [Example 18, N-(4-Methoxyphenylacetyl)-N',N"-bis(3-aminopropyl)-1,3-propanediamine], the figure is around 900 µM.
Still for that read-out and setting: as for `NCCCNCCCNCCCNC(=O)Cc1ccccc1O` [Example 19, N-(2-Hydroxyphenylacetyl)-N',N"-bis(3-aminopropyl)-1,3-propanediamine], the figure is around 900 µM.
`NCCCNCCCNCCCNC(=O)Cc1cccc(O)c1` [Example 20, N-(3-Hydroxyphenylacetyl)-N',N"-bis(3-aminopropyl)-1,3-propanediamine]: the “reduction … from control levels” value in assay [1] (1.04×10^-4 M, 104 µM) is “approximately 60%”.
`NCCCNCCCNCCCNC(=O)Cc1ccc(O)cc1` [Example 21, N-(4-Hydroxyphenylacetyl)-N',N"-bis(3-aminopropyl)-1,3-propanediamine]: in assay [1] (1×10^-4 M, 100 µM), the “reduction … from control levels” value is reported as “approximately 30%”. Moreover, in assay [1] (setting [3]), the IC50 was around 900 µM.
